Like-named read-outs stand apart in the source and are kept apart here.
Legend:
Klebsiella pneumoniae = experiment: Adjuvant broth microdilution (antibiotic MIC with SP-BIM at 50 μg/mL); type: cell-based; conditions: Klebsiella pneumoniae; antibiotic alone; Table 7; read-out: MIC of antibiotic, No compound
MRSA = experiment: as above; type: cell-based, Staphylococcus aureus; conditions: Staphylococcus aureus, antibiotic alone, Table 4, read-out: MIC of antibiotic, No compound
[1] = tested on: Corynebacterium diphtheriae ATCC 27010; experiment: Broth microdilution MIC of SP-BIMs; type: cell-based
[2] = tested on: Candida albicans ATCC 22972; experiment: Broth microdilution MIC of SP-BIMs; type: cell-based
[3] = tested on: Staphylococcus aureus ATCC 12600; experiment: Broth microdilution MIC of SP-BIMs; type: cell-based
[4] = tested on: Streptococcus pyogenes ATCC 19615; experiment: Broth microdilution MIC of SP-BIMs; type: cell-based
[5] = tested on: Pseudomonas aeruginosa ATCC 27853; experiment: Broth microdilution MIC of SP-BIMs; type: cell-based
Streptococcus pneumoniae = experiment: Adjuvant broth microdilution (antibiotic MIC with SP-BIM at 50 μg/mL); type: cell-based; conditions: Streptococcus pneumoniae, Streptococcus pneumonia, SP-BIM at 50 μg mL^−1
[6] = tested on: Enterococcus faecium ATCC 19434; experiment: Broth microdilution MIC of SP-BIMs; type: cell-based
[7] = tested on: Escherichia coli ATCC 35218; experiment: Broth microdilution MIC of SP-BIMs; type: cell-based
[8] = tested on: Bacillus cereus ATCC 14579; experiment: Broth microdilution MIC of SP-BIMs; type: cell-based
[9] = tested on: Klebsiella pneumoniae ATCC 49472; experiment: Broth microdilution MIC of SP-BIMs; type: cell-based
[10] = tested on: Salmonella typhimurium ATCC 14028; experiment: Broth microdilution MIC of SP-BIMs; type: cell-based; conditions: Salmonella enterica, read-out: MIC Salmonella tvpkimurium ATCC 14028
Description: Reference microorganisms used in this study included: Bacillus cereus (American Type Culture Collection (ATCC) No. 14579), Streptococcus pyogenes (ATCC No. 19615), Staphylococcus aureus (ATCC No. 12600), Enterococcus faecium (ATCC No. 19434), Corynebacterium diphtheriae (ATCC No. 27010), Escherichia coli (ATCC No. 35218), Salmonella typhimurium (ATCC No. 14028), Pseudomonas aeruginosa (ATCC No. 27853), Klebsiella pneumoniae (ATCC No. 49472), and Candida albicans (ATCC No. 22972).
Prior to each experiment, cultures were streaked onto clean BHI agar plates and incubated at 35° C. for 24 hours. Colonies of the respective cultures were selected and inoculated in phosphate buffer saline (pH 7.5) to a 0.5 McFarland turbidity standard (equivalent to 10^8 CFU mL^−1). The bacterial suspension was then diluted 1:100 in cation adjusted Mueller Hinton Broth (ca-MHB) (Oxoid Ltd, Basingstoke, Hampshire, England).
Stock solutions (50 mg mL^−1) of the SP-BIM test compounds were prepared in DMSO and stored at 4° C. Working preparations of each compound was made up to 1 mg/mL in sterile deionized water with a final DMSO concentration of 10%.
To assess the antibiotic properties of the library of SP-BIMs, the broth microdilution assay was performed in 96-well microplates according to the Clinical and Laboratory Standards Institute 2014 Guidelines (CLSI 2014). The broth microdilution assay was used to determine the minimum inhibitory concentration (MIC). […] Bacterial cells (˜10^6 CFU mL^−1) were inoculated into cation adjusted-Mueller Hinton broth containing the test compound in a twofold serial dilution ranging between 250 μg mL^−1 and 0.02 μg mL^−1. Plates were incubated at 35° C. for 18 hours after which 50 μL of 5% resazurin solution was added to each well. Resazurin is a blue dye which, upon reduction by living cells, turns to a pink resorufin product. Plates were shaken for 1 hour after the addition of the dye. The MIC was recorded as the well with the lowest concentration of test compound where no color change was observed.

[11] = ATCC27010, SP-BIM alone, read-out: MIC Corynebacterium diphtheriae ATCC 27010
[12] = ATCC22972, SP-BIM alone, read-out: MIC Candida albicans ATCC 22972
[13] = ATCC12600, SP-BIM alone, read-out: MIC Staphylococcus aureus ATCC 12600
[14] = ATCC19615, SP-BIM alone, read-out: MIC Streptococcus pyogenes ATCC 19615
[15] = ATCC27853, SP-BIM alone, read-out: MIC Pseudomonas aeruginosa ATCC 27853
[16] = read-out: MIC of Kanamvcin with SP-BIM
[17] = read-out: MIC of Vancomvcin with SP-BIM
[18] = ATCC19434, SP-BIM alone, read-out: MIC Enterococcus faecium ATCC 19434
[19] = ATCC35218, SP-BIM alone, read-out: MIC Escherichia coli ATCC 35218
[20] = ATCC14579, SP-BIM alone, read-out: MIC Bacillus cereus ATCC 14579
[21] = ATCC49472, SP-BIM alone, read-out: MIC Klebisella pneumoniae ATCC 49472

SMILES | MIC [1, 11] [µg/mL] | MIC [2, 12] [µg/mL] | MIC [3, 13] [µg/mL] | MIC [4, 14] [µg/mL] | MIC [5, 15] [µg/mL] | MIC (Streptococcus pneumoniae; [16]) [µg/mL] | MIC (Streptococcus pneumoniae; [17]) [µg/mL] | MIC [6, 18] [µg/mL] | MIC [7, 19] [µg/mL] | MIC [8, 20] [µg/mL] | MIC [9, 21] [µg/mL] | MIC [10] [µg/mL] | further results
C[C@@H](O)[C@H]1C(=O)N2C(C(=O)O)=C(SCCN=CN)C[C@H]12 [Imipenem, imipenem] |  |  |  |  |  |  |  |  |  |  |  |  | MIC (Klebsiella pneumoniae): 2 µg/mL; MIC (MRSA): 4 µg/mL
O=[N+]([O-])c1ccc(C(c2c[nH]c3ccccc23)c2c[nH]c3ccccc23)cc1 [SP-BIM 8] | > 250 | 250 | > 250 | > 250 | 250 | 125 | 1 | > 250 | > 250 | > 250 | > 250 | 250 | 
COc1ccccc1C(c1c[nH]c2ccccc12)c1c[nH]c2ccccc12 [SP-BIM 12, bis(indol-3-yl)-2-methoxyphenylmethane] | > 250 | 250 | > 250 | > 250 | 250 | 125 | 1 | > 250 | > 250 | > 250 | > 250 | 250 | 
c1ccc2c(c1)cc(C(c1c[nH]c3ccccc13)c1c[nH]c3ccccc13)c1ccccc12 [SP-BIM 14, bis[indol-3-yl)-phenanthren-9-ylmethane] |  |  |  |  |  | 125 | 1 |  |  |  |  | 250 | MIC ([1]; ATCC27010, read-out: MIC Corynebacterium diphtheriae ATCC 27010): > 250 µg/mL; MIC ([2]; ATCC22972, read-out: MIC Candida albicans ATCC 22972): 250 µg/mL; MIC ([3]; ATCC12600, read-out: MIC Staphylococcus aureus ATCC 12600): > 250 µg/mL; MIC ([4]; ATCC19615, read-out: MIC Streptococcus pyogenes ATCC 19615): 125 µg/mL; MIC ([5]; ATCC27853, read-out: MIC Pseudomonas aeruginosa ATCC 27853): 250 µg/mL; MIC ([6]; ATCC19434, read-out: MIC Enterococcus faecium ATCC 19434): 125 µg/mL; MIC ([7]; ATCC35218, read-out: MIC Escherichia coli ATCC 35218): > 250 µg/mL; MIC ([8]; ATCC14579, read-out: MIC Bacillus cereus ATCC 14579): 125 µg/mL; MIC ([9]; ATCC49472, read-out: MIC Klebisella pneumoniae ATCC 49472): > 250 µg/mL
Oc1cc(Br)ccc1[C+](c1c[nH]c2ccccc12)c1c[nH]c2ccccc12 [SP-BIM 17, 4-bromo-2-hydroxyphenylbis(indol-3-yl)methylium] | > 250 | 250 | > 250 | > 250 | 250 | 125 | 1 | > 250 | > 250 | > 250 | > 250 | 250 | 
COc1ccc2c(C(c3cccc(O)c3)c3c[nH]c4cc(OC)ccc34)c[nH]c2c1 [SP-BIM 19, bis(6-methoxyindoly-3-yl)-3-hydroxyphenylmethane] | > 250 | 250 | > 250 | > 250 | 250 | 125 | 1 | > 250 | > 250 | > 250 | > 250 | 250 | 
COc1ccc2c(C(c3ccc([N+](=O)[O-])cc3)c3c[nH]c4cc(OC)ccc34)c[nH]c2c1 [SP-BIM 20, bis(6-methoxyindol-3-yl)-4-nitrophenylmethane] | > 250 | 250 | > 250 | > 250 | 250 | 125 | 1 | > 250 | > 250 | > 25 | > 250 | 250 | 
